For one experiment, the target named is GCGR (Homo sapiens, UniProt P47871). Put plainly: GCGR activation CRE-Luc reporter assay in vitro. In kind it is cell-based. For orientation: In a reporter assay the amount or activity of a reporter protein is the signal.
In another experiment the target is human serum albumin (human, UniProt P02768 25-609). The experiment in a line: ITC. On the technique in general: Isothermal titration calorimetry measures the heat released or taken up as one component is titrated into another.

Broadly, the EC50 is the concentration giving half of the maximal effect. Higher therefore signals a need for much substance. As a reminder, the Kd is the constant that tells how readily two partners part at equilibrium. The low end stands for higher affinity, the high end for lower affinity.

Sequence of GCGR (P47871 26-477): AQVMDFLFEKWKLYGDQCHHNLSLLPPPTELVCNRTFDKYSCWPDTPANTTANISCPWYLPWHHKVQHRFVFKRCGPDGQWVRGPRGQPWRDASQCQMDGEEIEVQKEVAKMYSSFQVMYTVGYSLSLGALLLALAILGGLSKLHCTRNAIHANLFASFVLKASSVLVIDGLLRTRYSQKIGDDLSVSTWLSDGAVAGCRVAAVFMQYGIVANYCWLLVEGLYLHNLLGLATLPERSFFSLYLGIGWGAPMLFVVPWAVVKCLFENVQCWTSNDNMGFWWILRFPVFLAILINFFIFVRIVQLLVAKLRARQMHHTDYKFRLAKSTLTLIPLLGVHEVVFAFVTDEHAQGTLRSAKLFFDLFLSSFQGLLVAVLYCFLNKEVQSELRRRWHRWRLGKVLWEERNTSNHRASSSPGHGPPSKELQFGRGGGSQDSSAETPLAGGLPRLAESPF

On to `CCCCCCCCCCCCCCCC(=O)N[C@@H](CCC(=O)NCCCC[C@H](NC(=O)[C@H](C)NC(=O)[C@H](C)NC(=O)[C@H](CCC(N)=O)NC(=O)CNC(=O)[C@H](CCC(=O)O)NC(=O)[C@H](CC(C)C)NC(=O)[C@H](Cc1ccc(O)cc1)NC(=O)[C@H](CO)NC(=O)[C@H](CO)NC(=O)[C@@H](NC(=O)[C@H](CC(=O)O)NC(=O)[C@H](CO)NC(=O)[C@@H](NC(=O)[C@H](Cc1ccccc1)NC(=O)[C@@H](NC(=O)CNC(=O)[C@H](CCC(=O)O)NC(=O)[C@H](C)NC(=O)[C@@H](N)Cc1cnc[nH]1)[C@@H](C)O)[C@@H](C)O)C(C)C)C(=O)N[C@@H](CCC(=O)O)C(=O)N[C@@H](Cc1ccccc1)C(=O)N[C@H](C(=O)N[C@@H](C)C(=O)N[C@@H](Cc1c[nH]c2ccccc12)C(=O)N[C@@H](CC(C)C)C(=O)N[C@H](C(=O)N[C@@H](CCCNC(=N)N)C(=O)NCC(=O)N[C@@H](CCCNC(=N)N)C(=O)NCC(=O)O)C(C)C)[C@@H](C)CC)C(=O)O` [Liraglutide, liraglutide], for which, on GCGR, the EC50 is more than 1 µM.
GGSGSG [6-amino acid linker GGSGSG] came in with a Kd with human serum albumin of 805 µM.

These data come from PMC10935026 (Acta Pharmaceutica Sinica. B, 2023).
